Laboratory results from patent US20180369230A1, “TARGETED SELECTION OF PATIENTS FOR TREATMENT WITH SPECIFIC CORTISTATIN DERIVATIVES” (President and Fellows of Harvard College, priority 2015, published 2018).

Experiments:
MOLM-14 cells [1] = assay: Gene expression, gene set enrichment analysis (GSEA); type: cell-based, human; details: MOLM-14, 3 h 25 nM
Description: (§1) Leukemia cells were plated (12-well) in triplicate at 500,000-800,000 cells per ml and incubated in the presence of vehicle (0.1% DMSO) or CA (25 nM 3 h for K562, MOLM-14 and MV4;11; 10 nM 24 h for MOLM-14; 25 nM 4 h for SET-2, n=3 for each cell line). Cells were then washed twice with cold PBS, and snap frozen. RNA was isolated (RNeasy Plus Microkit, Qiagen or TRIzol, Life Technologies), processed, and, for K562, MOLM-14 and MV4;11, hybridized to the Human U133 Plus 2.0 microarray (Affymetrix). Microarrays were processed with Bioconductor packages affyQCReport for quality control and affy for background correction, summarization, and normalization using rma. Probe sets present in at least 1 sample (based on affy mas5call) and for which the interquartile range was >log2(1.2) were retained for further analysis. The limma Bioconductor package was used for differential expression analysis of CA-treated versus DMSO control samples (Benjamini-Hochberg adjusted P<0.05). SET-2 and HCT 116 gene expression was measured by RNA-seq. SET-2 RNA-seq libraries were prepared and processed using the Ion Torrent workflow. Reads were aligned in two passes, first with rnaStar (v.2.3.0e) then with BWA (v.0.7.5a) for remaining unmapped reads, both using default parameters. Mapped reads were merged and counted using HTSeq (v.0.5.3p3) with -s yes -m intersection-strict. The Bioconductor package DESeq was used for DE analysis (FDR<0.05 and twofold change) and normalization. HCT116 cells were grown to approximately 80% confluence and were treated with either 100 nM CA or DMSO for 3 h (n=3). Cells were then washed twice with cold PBS and scraped into TRIzol reagent (Life Technologies). After collecting the RNA, it was further purified using an RNeasy mini kit (Qiagen) with an on-column DNase I digestion. Libraries for Illumina sequencing were generated via the Illumina TruSEQ stranded mRNA prep kit. Samples were run in a single lane on an Illumina HiSEQ 2000 sequencer with a single read flow cell using 1×50-bp reads and a 6-cycle index read. Reads were mapped to the hg19 reference genome using Tophat2 v.2.0.6 with custom settings including the setting of -library-type fr- firstrand to appropriately account for the stranded nature of the protocol. HTSeq v.0.6.1 was used to obtain read counts over annotated genes and differentially expressed genes were called by DESeq v.1.10.1 with a padj value of less than 0.01. Counts were normalized for GSEA using the limma voom function. Expression data for the I-BET151 comparison were downloaded from ArrayExpress (https://www.ebi.ac.uk/arrayexpress, accession E-MTAB-774) and processed files used as is. Gene lists were submitted to the DAVID web server (http://david.abcc.ncifcrf.gov) for functional annotation. GSEA version 2.09 was carried out using signal-to-noise on natural values as the metric. Signatures included curated gene sets (C2, v.3) downloaded from the Broad's MSigDB as well as signatures curated from in-house and published data sets.
(§2) The curated gene sets were analyzed together with over 4,000 signatures including the Broad Molecular Signatures database (C2).

SET-2 cells [2] = assay: as above; type: cell-based, human; details: SET-2, 4 h 25 nM
Description: as §1, §2

SET-2 cells [3] = assay: SET-2 differentiation assay; type: cell-based; details: 50 nM, 3 days, flow cytometry
Description: For the SET-2 differentiation assay, cells were plated (6-well) in triplicate at 150,000 cells per ml for 3-days with 50 nM CA, 50 ng ml^−1 PMA (positive control), or vehicle. Cell pellets were collected at 4° C., washed three times with cold PBS, and stained with anti-CD61-PE (ab91128) or anti-CD41-PerCP (ab134373) and analyzed by flow cytometry. For each experiment, n=3 biological replicates with two independent experiments and one shown (FIG. 3).

MOLM-14 cells [4] = assay: Screening drug resistant alleles; type: cell-based; details: WT and mutated CDK8 and CDK19
Description: All suspension cells were plated (96-well) in triplicate at 5,000-30,000 cells per well for testing (n=3). Viable cell number was estimated after 3, 7 and 10 days by counting viable cells from one vehicle well, generating a cell dilution series, transferring […] per well in duplicate to a 384-well plate, and performing a linear regression to CellTiter-Glo (Promega) response (SPECTRAmax M3, Molecular Devices). Cells from all wells were also fourfold diluted in media and transferred in duplicate for CellTiter-Glo measurement. On days 3 and 7, an equal volume for all wells was split-back with fresh media and compound, such that the resulting cell density for the vehicle well matched the initial seeding density. For days 7 and 10, estimated cell number represents the split-adjusted theoretical cell number. HCT116 were plated (96-well) in triplicate at 250 cells per well. Cells were incubated in the presence of vehicle, 1 μM paclitaxel, or compound. On day 7, CellTiter-Blue (Promega) response was measured and values were normalized to vehicle (100% growth) and paclitaxel (0% growth). For growth assays with inhibitors, n=3 for each concentration with two independent experiments. […]

Cortistatin A
NES (MOLM-14 cells [1]; signature: Downregulated by RUNX1-RUNX1T1 in CD34+ cord blook cells): 2.50
NES (MOLM-14 cells [1]; signature: Downregulated by RUNX1 knowckdown in Jurkat cells): 2.00
NES (MOLM-14 cells [1]; signature: Downregulated by RUNX1 knowckdown in Kasumi-1 cells): 2.21
NES (MOLM-14 cells [1]; signature: Upregulated by C/EBPα in Burkitt lymphoma cells): 2.56
NES (MOLM-14 cells [1]; signature: Upregulated by C/EBPα in K562 cells): 2.22
NES (MOLM-14 cells [1]; signature: Upregulated by C/EBPα in KCL22 cells): 2.22
NES (MOLM-14 cells [1]; signature: Upregulated by RUNX1-RUNX1T1 knockdown in Kasumi-1 cells): 2.78
NES (SET-2 cells [2]; signature: GATA1/GATA2/RUNX1/FLI1/SCL Binding Sites in Mks): 2.03
NES (SET-2 cells [2]; signature: GATA1/SCL Binding sites in Mks): 2.27
differentiation, megakaryocytic markers CD41 and CD61 (SET-2 cells [3]): induces differentiation
growth of cells expressing CDK8 W105M or CDK19 W105M (MOLM-14 cells [4]): confers Cortistatin A resistance
